# Test results reported in patent US3996263A, “9-Oxo-11α-methyl-15.EPSILON.-hyroxyprost-13(trans)-enoic acid derivatives and process for the preparaion thereof” (priority 1975, dated 1976).
# Columns and labels:
# [1] = tested on: indomethacin-induced gastric ulceration in rats; experiment: Inhibition of indomethacin-induced gastric ulceration by prostaglandins, rats; assay type: in vivo, Sprague-Dawley strain male rats; conditions: for Inhibitory ratio (%): 5 hours; for ED50: Rattus norvegicus, po, 5 h, p.o., indomethacin 30 mg/kg i.p., read-out: ED50 (50% inhibition of the ulcer formation)
# Protocol: The method employed for the production and evaluation of indomethacin-induced ulcers was essentially same as described by Lee, Mollison and Cheng in Archives Internationales de Pharmacodynamie et de Therapie, vol. 191, page 370 - 377 and by Lippmann in Prostaglandins, vol. 7, page 1 - 10. Sprague-Dawley strain male rats weighing 200 - 220 g were fasted 20 hours with free access to water until the start of experiment. Indomethacin was suspended in 0.4% Tween 80 (surface active agent, product of Atlas Powder Co. U.S.A.) solution and given intraperitoneally into the rats at a dose of 30 mg/kg body weight. The test drugs were dissolved in physiological saline with aid of an ultrasonicator and administered perorally immidiately after the administration of indomethacin. The animals were killed 5 hours later and the ulcer formation in the glandular portion of the stomach was determined.
# [2] = tested on: stress-induced ulceration in rats; experiment: Inhibition of the stress-induced ulceration by prostaglandins, rats; assay type: in vivo, Donryu strain male rats; conditions: for Inhibitory ratio (%): stress 8 hr at 23° C; for anti-stress ulcer potency relative to Compound C / anti-stress ulcer activity compared with PGE1 / anti-stress ulcer activity compared with PGE2: oral; for anti-stress ulcer potency relative to Compound C: versus Compound C; for anti-stress ulcer activity compared with PGE1: versus PGE1; for anti-stress ulcer activity compared with PGE2: versus PGE2
# Protocol: The method employed for the production and evaluation of stress ulcer was essentially same as described by Takagi and Okabe in Journal of Pharmacology vol. 18, pages 9-18 (Japan). Donryu strain male rats, 200 - 230 g in weight, were used. Animals were placed in the stress cage and immersed in a water bath kept at 23° C for 8 hr to the height of the xiphoid of the animal. At the end of the stress, the animals were killed by a blow, and stomach was removed, inflated with 10 ml of 1% formalin solution and placed into 1% formalin solution. Thereafter the stomach was cut along the greater curvature and examined for lesions macroscopically. The ulcer index was calculated as the sum of the length of each lesion in the stomach. Inhibitory ratio of ulceration was calculated for each dose. The test drugs were dissolved into 0.4% Tween 80 solution with aid of an ultrasonicator and administered orally (0.2 ml/100 g) immediately before the stress.
# gastric secretion = conditions: German Patent Offenlegungsschrift 2,313,868; cited from earlier work
# [3] = cited from earlier work
# intestinal tube = conditions: stated for prior prostaglandins; cited from earlier work
# diarrheal activity = assay type: in vivo; conditions: in words
# vasodepressor activity = assay type: in vivo; conditions: in words
# [4] = stated for prior prostaglandins; cited from earlier work
compound,measurement,setting,value
"CCCCC(C)(C)[C@H](O)/C=C/[C@H]1[C@H](C)CC(=O)[C@@H]1CCCCCCC(=O)O (relative stereo) [Compound A, 9-Oxo-11α,16,16-trimethyl-15α-hydroxyprost-13(trans)-enoic acid]",Inhibitory ratio (%),[1]; 0.25 mg/kg p.o.,63%
same,Inhibitory ratio (%),[1]; 0.50 mg/kg p.o.,71%
same,ED50,[1],0.16 mg/kg
same,Inhibitory ratio (%),[2]; 0.3 mg/kg p.o.,12%
same,Inhibitory ratio (%),[2]; 1.0 mg/kg p.o.,73%
same,anti-stress ulcer potency relative to Compound C,[2],more than 10 times
same,anti-stress ulcer activity compared with PGE1,[2],significantly more potent than that of PGE1
same,anti-stress ulcer activity compared with PGE2,[2],equally potent as or slightly more potent than that of PGE2
"CCCCC(C)(C)[C@H](O)/C=C/[C@H]1[C@H](C)CC(=O)[C@@H]1CCCCCCC(=O)OC (relative stereo) [Compound B, Methyl 9-oxo-11α,16,16-trimethyl-15α-hydroxyprost-13(trans)-enoate]",Inhibitory ratio (%),[1]; 0.25 mg/kg p.o.,49%
same,Inhibitory ratio (%),[1]; 0.50 mg/kg p.o.,67%
same,ED50,[1],0.26 mg/kg
same,Inhibitory ratio (%),[2]; 0.3 mg/kg p.o.,11%
same,Inhibitory ratio (%),[2]; 1.0 mg/kg p.o.,92%
same,anti-stress ulcer potency relative to Compound C,[2],more than 10 times
same,anti-stress ulcer activity compared with PGE1,[2],significantly more potent than that of PGE1
same,anti-stress ulcer activity compared with PGE2,[2],equally potent as or slightly more potent than that of PGE2
"CCCCC[C@H](O)/C=C/[C@H]1[C@H](C)CC(=O)[C@@H]1CCCCCCC(=O)O (relative stereo) [Compound C, 9-Oxo-11α-methyl-15α-hydroxyprost-13(trans)-enoic acid]",Inhibitory ratio (%),[1]; 1.25 mg/kg p.o.,52%
same,Inhibitory ratio (%),[1]; 2.5 mg/kg p.o.,68%
same,ED50,[1],1.18 mg/kg
same,Inhibitory ratio (%),[2]; 5.0 mg/kg p.o.,9%
same,Inhibitory ratio (%),[2]; 10 mg/kg p.o.,40%
"CCCCC[C@H](O)/C=C/[C@H]1[C@@H](C)CC(=O)[C@@H]1CCCCCCC(=O)O (relative stereo) [Compound D, 9-Oxo-11β-methyl-15α-hydroxyprost-13(trans)-enoic acid, reference compound]",Inhibitory ratio (%),[1]; 1.25 mg/kg p.o.,43%
same,Inhibitory ratio (%),[1]; 2.5 mg/kg p.o.,61%
same,ED50,[1],1.64 mg/kg
CCCCCC(O)/C=C/C1C(C)CC(=O)C1CCCCCCC(=O)O (stereo not drawn) [9-oxo-11β-methyl-15α(or β)-hydroxyprost-13(trans)-enoic acid],inhibition of gastric secretion,gastric secretion,inhibit gastric secretion
same,anti-ulcerogenic activity compared with prostaglandins E1 and E2,[3]; versus prostaglandins E1 and E2,extremely lower than that of prostaglandins E1 and E2
CCCCC[C@H](O)/C=C/[C@H]1[C@H](O)CC(=O)[C@@H]1CCCCCCC(=O)O [PGE1],intestinal tube-contracting activity,intestinal tube,potent hypotensive and intestinal tube-contracting activities
"CCCCC[C@H](O)/C=C/[C@H]1[C@H](O)CC(=O)[C@@H]1C/C=C\CCCC(=O)O [PGE2, reference compound]",Inhibitory ratio (%),[1]; 0.05 mg/kg p.o.,57%
same,Inhibitory ratio (%),[1]; 0.25 mg/kg p.o.,79%
same,potency relative to compound A in inhibition of the indomethacin-induced ulcer formation,[1]; PGE2 versus compound A,approximately 5 times
same,ED50,[1],0.03 mg/kg
same,Inhibitory ratio (%),[2]; 0.3 mg/kg p.o.,17%
same,Inhibitory ratio (%),[2]; 1.0 mg/kg p.o.,60%
same,diarrhea (side effect),diarrheal activity,exhibits various side effects including diarrhea
same,vasodepressor activity,vasodepressor activity,vasode-pressor activity
same,hypotensive activity,[4],potent hypotensive
same,intestinal tube-contracting activity,intestinal tube,potent hypotensive and intestinal tube-contracting activities
same,anti-ulcerogenic effects,"[3]; U.S. Pat. No. 3,781,429, Prostaglandins 1974, 6, 523-532",anti-ulcerogenic effects
